Source: patent US6777435B1, “Crystals of an oxyiminoalkanoic acid derivative and their use as antidiabetics” (Takeda Chemical Industries, Ltd., priority 1999, dated 2004)

Experiments:
Wistar fatty rats = assay: Hypoglycemic and hypolipidemic actions in rats; type: in vivo; conditions: 1 mg/kg/day orally for seven days, percentage reduction compared with non-treatment group
Protocol: Crystals of the test compound were suspended in an amount of 1 mg/5 ml in a 0.5% methyl cellulose solution and compulsorily administered orally at the dose of 1 mg/kg/day to Wistar fatty rats (27-30 weeks old; five rats in a group), a model of obesity and type 2 diabetes mellitus, for seven days successively. During that period, diet and water were given freely. Blood was sampled from tail vein and measurement of the components was carried out using serum. Glucose was quantified using L-type Wako Glu2 (Wako Pure Chemicals) while triglyceride was quantified using L-type Wako TG.H (Wako Pure Chemical). The value of treatment group is represented as percentage reduction compared with the non-treatmet group.

KKA^γ mice = assay: Hypoglycemic and hypolipidemic actions in mice; type: in vivo; conditions: 0.01% in powdery diet for four days, percentage reduction compared with non-treatment group
Protocol: Crystals of the test compound were mixed in a powdery diet (CE-2; Japan Clea) at a concentration of 0.01%, and freely given to KKA^γ mice (11 weeks old; five mice in a group), a model of obesity and type 2 diabetes mellitus, for four days. During that period, water was given freely. Blood was sampled from orbital venous plexus and measurement of the components was carried out using serum. Glucose was quantified using L-type Wako Glu2 (Wako Pure Chemicals) while triglyceride was quantified using Iatro-MA701 TG kit (Iatron Laboratories Inc.). The value of treatment group is represented as percentage reduction compared with the non-treatmet group.

| Compound | Hypoglycemic Action (%) (Wistar fatty rats; serum glucose) | Hypolipemic Action (%) (Wistar fatty rats; serum triglyceride) | Hypoglycemic Action (%) (KKA^γ mice; serum glucose) | Hypolipemic Action (%) (KKA^γ mice; serum triglyceride) |
| --- | --- | --- | --- | --- |
| Cc1oc(-c2ccccc2)nc1COc1ccc(CO/N=C(\CCC(=O)O)c2ccccc2)cc1 [Crystals of Example 1, (E)-4-[4-(5-methyl-2-phenyl-4-oxazolylmethoxy)benzyloxyimino]-4-phenylbutyric acid] | 60 | 85 |  |  |
| Cc1oc(-c2ccccc2)nc1COc1ccc(CO/N=C(\CCC(=O)O)c2ccccc2)cc1 [Crystals of Reference Example 4, (E)-4-[4-(5-methyl-2-phenyl-4-oxazolylmethoxy)benzyloxyimino]-4-phenylbutyric acid] |  |  | 42 | 61 |
